Data as given in patent US10167262B2, “Herbicidal substituted 3-arylpyrazoles” (FMC CORPORATION, priority 2014, dated 2019).

What was measured:
Type in all cases: in vivo
kochia (Kochia scoparia) [1] = experiment: Test D postemergence controlled growth environment test, plant response rating 0-100
Text: (§1) Seeds of plant species selected from bluegrass (annual bluegrass, Poa annua), blackgrass (Alopecurus myosuroides), canarygrass (Phalaris minor), chickweed (common chickweed, Stellaria media), galium (catchweed bedstraw, Galium aparine), downy bromegrass (Bromus tectorum), field violet (Viola arvensis), green foxtail (Setaria viridis), deadnettle (henbit deadnettle, Lamium amplexicaule), Italian ryegrass (Lolium multiflorum), kochia (Kochia scoparia), lambsquarters (Chenopodium album), oilseed rape (Brassica napus), pigweed (Amaranthus retroflexus), Russian thistle (Salsola kali), spring barley (Hordeum vulgare), spring wheat (Triticum aestivum), wild buckwheat (Polygonum convolvulus), wild mustard (Sinapis arvensis), wild oat (Avena fatua), windgrass (Apera spica-venti), winter barley (Hordeum vulgare), and winter wheat (Triticum aestivum) were planted in pots containing Redi-Earth® planting medium (Scotts Company, 14111 Scottslawn Road, Marysville, Ohio 43041) comprising spaghnum peat moss, vermiculite, wetting agent and starter nutrients and treated with postemergence applications of test chemicals formulated in a non-phytotoxic solvent mixture which included a surfactant. Plants ranged in height from 2 to 18 cm (1- to 4-leaf stage). Treated plants and controls were maintained in a controlled growth environment for 14 days after which time all species were compared to controls and visually evaluated. Plant response ratings, summarized in Table D, are based on a scale of 0 to 100 where 0 is no effect and 100 is complete control. A dash (-) response means no test result.

[2] = tested on: lambsquarters (Chenopodium album); experiment: as above
Text: as §1

[3] = tested on: downy bromegrass (Bromus tectorum); experiment: as above
Text: as §1

wild oat (Avena fatua) = experiment: as above
Text: as §1

[4] = tested on: pigweed (Amaranthus retroflexus); experiment: as above
Text: as §1

[5] = tested on: winter wheat (Triticum aestivum); experiment: as above
Text: as §1

[6] = tested on: green foxtail (Setaria viridis); experiment: as above
Text: as §1

[7] = tested on: Russian thistle (Salsola kali); experiment: as above
Text: as §1

[8] = tested on: galium (catchweed bedstraw, Galium aparine); experiment: as above
Text: as §1

kochia (Kochia scoparia) [9] = experiment: Test E pre-/postemergence greenhouse test, plant response rating 0-100; conditions: Preemergence, scale 0 to 100
Procedure, shortened: (§2)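 Pre- and postemergence sprays, vehicle non-phytotoxic solvent containing surfactant; postemergence plants 2–18 cm tall at the 1–4-leaf stage. Scored against controls after 14 to 21 days in a greenhouse, 0 being no effect and 100 complete control.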

[10] = tested on: cocklebur (common cocklebur, Xanthium strumarium); experiment: as above; conditions: Preemergence, scale 0 to 100
Procedure, shortened: as §2

[11] = tested on: velvetleaf (Abutilon theophrasti); experiment: as above; conditions: Preemergence, scale 0 to 100
Procedure, shortened: as §2

## Clc1cc(Cl)cc(-c2n[nH]cc2C(=NN2CCCC2)c2ccccc2)c1 [Compound 30, N-[[3-(3,5-dichlorophenyl)-1H-pyrazol-4-yl]phenylmethylene]-1-pyrrolidinamine]
Kochia (Kochia scoparia) [1]; 16 g ai/ha
  Plant response rating, Kochia: 0
Kochia (Kochia scoparia) [1]; 31 g ai/ha
  Plant response rating, Kochia: 10
Kochia (Kochia scoparia) [1]; 62 g ai/ha
  Plant response rating, Kochia: 30
Kochia (Kochia scoparia) [1]; 125 g ai/ha
  Plant response rating, Kochia: 40
Kochia (Kochia scoparia) [1]; 250 g ai/ha
  Plant response rating, Kochia: 70
[2]; 16 g ai/ha
  Plant response rating, Lambsquarters: 0
[2]; 31 g ai/ha
  Plant response rating, Lambsquarters: 0
[2]; 62 g ai/ha
  Plant response rating, Lambsquarters: 30
[2]; 125 g ai/ha
  Plant response rating, Lambsquarters: 40
[2]; 250 g ai/ha
  Plant response rating, Lambsquarters: 50
[3]; 16 g ai/ha
  Plant response rating, Bromegrass, Downy: 0
[3]; 31 g ai/ha
  Plant response rating, Bromegrass, Downy: 0
[3]; 62 g ai/ha
  Plant response rating, Bromegrass, Downy: 0
[3]; 125 g ai/ha
  Plant response rating, Bromegrass, Downy: 0
[3]; 250 g ai/ha
  Plant response rating, Bromegrass, Downy: 0
Wild oat (Avena fatua); 16 g ai/ha
  Plant response rating, Oat, Wild: 0
Wild oat (Avena fatua); 31 g ai/ha
  Plant response rating, Oat, Wild: 0
Wild oat (Avena fatua); 62 g ai/ha
  Plant response rating, Oat, Wild: 0
Wild oat (Avena fatua); 125 g ai/ha
  Plant response rating, Oat, Wild: 0
Wild oat (Avena fatua); 250 g ai/ha
  Plant response rating, Oat, Wild: 0
[4]; 16 g ai/ha
  Plant response rating, Pigweed: 25
[4]; 31 g ai/ha
  Plant response rating, Pigweed: 60
[4]; 62 g ai/ha
  Plant response rating, Pigweed: 70
[4]; 125 g ai/ha
  Plant response rating, Pigweed: 80
[4]; 250 g ai/ha
  Plant response rating, Pigweed: 90
[5]; 16 g ai/ha
  Plant response rating, Wheat, Winter: 0
[5]; 31 g ai/ha
  Plant response rating, Wheat, Winter: 0
[5]; 62 g ai/ha
  Plant response rating, Wheat, Winter: 0
[5]; 125 g ai/ha
  Plant response rating, Wheat, Winter: 0
[5]; 250 g ai/ha
  Plant response rating, Wheat, Winter: 90
[6]; 16 g ai/ha
  Plant response rating, Foxtail, Green: 0
[6]; 31 g ai/ha
  Plant response rating, Foxtail, Green: 0
[6]; 62 g ai/ha
  Plant response rating, Foxtail, Green: 0
[6]; 125 g ai/ha
  Plant response rating, Foxtail, Green: 0
[6]; 250 g ai/ha
  Plant response rating, Foxtail, Green: 0
[7]; 16 g ai/ha
  Plant response rating, Russian Thistle: 0
[7]; 31 g ai/ha
  Plant response rating, Russian Thistle: 10
[7]; 62 g ai/ha
  Plant response rating, Russian Thistle: 20
[7]; 125 g ai/ha
  Plant response rating, Russian Thistle: 40
[7]; 250 g ai/ha
  Plant response rating, Russian Thistle: 50
[8]; 16 g ai/ha
  Plant response rating, Galium: 0
[8]; 31 g ai/ha
  Plant response rating, Galium: 0
[8]; 62 g ai/ha
  Plant response rating, Galium: 0
[8]; 125 g ai/ha
  Plant response rating, Galium: 0
[8]; 250 g ai/ha
  Plant response rating, Galium: 0

## O=C(c1ccccc1)c1cn(S(=O)(=O)CC(F)(F)F)nc1-c1cc(Cl)cc(Cl)c1 [Compound 3]
Kochia (Kochia scoparia) [9]; 31 g ai/ha
  Kochia plant response rating: 0
Kochia (Kochia scoparia) [9]; 62 g ai/ha
  Kochia plant response rating: 20
Kochia (Kochia scoparia) [9]; 125 g ai/ha
  Kochia plant response rating: 25
Kochia (Kochia scoparia) [9]; 250 g ai/ha
  Kochia plant response rating: 50
Kochia (Kochia scoparia) [9]; 500 g ai/ha
  Kochia plant response rating: 70
[10]; 31 g ai/ha
  Cocklebur plant response rating: 0
[10]; 250 g ai/ha
  Cocklebur plant response rating: 0
[11]; 31 g ai/ha
  Velvetleaf plant response rating: 20
[11]; 62 g ai/ha
  Velvetleaf plant response rating: 20
[11]; 125 g ai/ha
  Velvetleaf plant response rating: 35
[11]; 250 g ai/ha
  Velvetleaf plant response rating: 40
[11]; 500 g ai/ha
  Velvetleaf plant response rating: 80
